# Measured values from paper PMC12091851, “Replacing a Cereblon Ligand by a DDB1 and CUL4 Associated Factor 11 (DCAF11) Recruiter Converts a Selective Histone Deacetylase 6 PROTAC into a Pan‐Degrader” (Chemmedchem, 2025).
# Assays:
# [1] = tested on: acetylated α-tubulin and histone H3; assay: Cellular target engagement, immunoblot of acetylated α-tubulin and histone H3 in MM.1S; format: cell-based, human; details: MM.1S cells, 10 μM, 24 h; compared to 2 and A6
# Protocol: Moreover, the capability to reduce the enzymatic activity of HDACs was confirmed by a cellular target engagement assay. MM.1S cells were treated with the PROTACs and the level of acetylated HDAC substrate proteins was subsequently determined. Class I HDACs deacetylate histone H3, and thus hyperacetylation of histone H3 indicates class I HDAC inhibition. Conversely, hyperacetylation of α‐tubulin serves a marker of HDAC6 inhibition. Both hit compounds are capable of inhibiting class I and HDAC6 in a cellular environment, confirming effective target engagement in MM.1S cells (Figure 5). With regards to the HDAC6 inhibition, the trend of the enzyme inhibition data was thus confirmed. […]
# Samples of the aqueous solutions were taken after 0, 24, 48, and 72 h at room temperature and the amounts of the parental compound and potential fragments were monitored by HPLC gradient A (see 3.1 General Information). […]
# Afterwards, proteins were transferred with the Trans -Blot Turbo Transfer System (Catalog# 1704150, Bio-Rad) to Immobilon-FL PVDF membranes (Catalog# IPFL00005, Mill ipore Merck, Burlington, MA, USA) at 1.0 A for 30 min and treated with 5% milk-powder solution for 1 h at room temperature under slight agitation. […] The ChemiDoc XRS+ System (Catalog# 1708265 , Bio-Rad) was used for detection and Image Lab Software 6.1 (Bio-Rad) for quantification. […]
# [2] = tested on: HDAC1, 2, 4, and 6; assay: Immunoblot HDAC isoform degradation in MM.1S, all tested isoforms; format: cell-based, human; details: MM.1S cells, 10 μM, 24 h
# Protocol: Figure 6 Examination of HDAC isoform degradation. MM.1S cells were treated with the indicated compounds (10 μM) or vehicle (DMSO) for 24 h. HDAC1, 2, 4, and 6 levels were analyzed by immunoblotting. (A) Representative images from a total of n=3 biological replicates.
# 2.5. Aqueous Stability Assay
# For stability testing in aqueous solution, a 10-fold concentrated DMSO solution of the respective compounds was diluted in DPBS to generate a 10 µM concentration (final DMSO content of 10%).
# Samples of the aqueous solutions were taken after 0, 24, 48, and 72 h at room temperature and the amounts of the parental compound and potential fragments were monitored by HPLC gradient A (see 3.1 General Information). The peak area of the 0 h sample was used for normalization. All compounds were tested in duplicates and GraphPad Prim was used for evaluation and data visualization.
# The cell lysis was performed as descripted in 3.2. Simple Western Immunoassay. Samples were denatured by Laemmli 2× Concentrate (Catalog# S3401-10VL, Sigma-Aldrich) for 5 min at 95 °C, and […]
# Bio-Rad, Hercules, CA, USA). […]
# 6.1 (Bio-Rad) for quantification. […]
# In vitro inhibitory activities against HDAC1, 2 , and 6 were measured using a previously published protocol.[3] In vitro inhibitory activities against HDAC4 were measured using a previously published protocol with slight modifications. […]
compound,measurement,setting,value
O=C(CCCCCCNC(=O)c1ccc(NC(=O)CCCCCCCCCCCN(C(=O)CCl)C(C(=O)NCc2ccccc2)c2ccc(Cl)c(Cl)c2)cc1)NO (centres unmarked) [Compound 1j],histone H3 hyperacetylation,[1],more pronounced
same,"Dmax, all four tested isoforms / other HDAC isoforms",[2],71–90%
